{
  "source": "patent US20120255853A1",
  "about": "“Method for Producing Superoxide, Method for Evaluating Superoxide Scavenging Ability, Device for Producing Superoxide, and Device for Evaluating Superoxide Scavenging Ability” (Sapporo Medical University, priority 2009, published 2012)",
  "key": {"[1]": {"assay": "Inhibition of radical generation by SOD, superoxide generated by xanthine oxidase (ESR)", "format": "biochemical", "conditions": "SOD 0.5, 1, 1.5 U/mL; hypoxanthine 0.39 mmol/L, xanthine oxidase 0.2 U/mL; compared with riboflavin system", "description": "Into a 50 mmol/L phosphate buffer with pH 7.4, hypoxanthine, CYPMPO (Radical Research Inc.), and diethylenetriaminopentaacetic acid (DETAPAC) were each added at 0.39 mmol/L, 10 mmol/L, and 0.1 mmol/L, respectively, to prepare an aqueous solution (SOD-free aqueous solution). Further, to this aqueous solution, SOD (Sigma) was added at a concentration of 0.5 U/mL, 1 U/mL, and 1.5 U/mL to separately prepare aqueous solutions with added SOD.\nTo each of the SOD-free aqueous solution and aqueous solutions with added SOD thus prepared, xanthine oxidase was added at 0.2 U/mL. Following a similar operation to Example 1 (2), each of the aqueous solutions was measured by ESR to obtain a spectrum. Subsequently, based on the spectrum thus obtained, the amount of a radical generated was quantified. Measurement by ESR was performed 60 seconds after the addition of xanthine oxidase.\nBased on the quantification results of the amount of a radical generated in the present Examples (1) and (2), the radical generation-inhibitory rate by SOD was calculated by the following formula 5.\nRadical generation-inhibitory rate by SOD=(S0−S)/[…] (Formula 5)"}, "[2]": {"assay": "Inhibition of radical generation by SOD, superoxide generated by light irradiation of riboflavin (ESR)", "format": "biochemical", "description": "To the aqueous solution thus prepared, superoxide dismutase (SOD) (Sigma), which is an enzyme that specifically scavenges superoxide, was added at 10 U/mL to separately prepare an aqueous solution with added SOD.\nThe aqueous solutions prepared in the present Example (1) (aqueous solutions with or without SOD) were each introduced into the sample tube of the electron spin resonance device JES-RE1X (JEOL Ltd.). Using a xenon lamp, the sample tube was irradiated with visible light of 1500 lux for 30 seconds. Subsequently, a measurement was made by ESR under the following measurement conditions to obtain a spectrum. The spectrum of the SOD-free aqueous solution was obtained as Spectrum A, and the spectrum of the aqueous solution with added SOD was obtained as Spectrum B. The results thus obtained are shown in FIG. 10. […]\nFollowing a similar operation to Example 1 (2), each of the aqueous solutions thus prepared was measured by ESR to obtain a spectrum. Based on the spectrum thus obtained, the amount of a radical generated was quantified.\nBased on the quantification results of the amount of a radical generated in the present Examples (1) and (2), the radical generation-inhibitory rate by SOD was calculated by the following formula 5. […]"}},
  "data": [
    {"substance": "superoxide dismutase [SOD]", "values": [
      {"measurement": "Radical generation-inhibitory rate by SOD", "setting": "[1]", "value": "approximately the same values"},
      {"measurement": "Radical generation-inhibitory rate by SOD", "setting": "[2]; SOD 0.5, 1, 1.5 U/mL, light irradiation of riboflavin, compared with xanthine oxidase system", "value": "approximately the same values"},
      {"measurement": "Superoxide scavenging (radicals generated with added SOD)", "setting": "[2]; SOD 10 U/mL, riboflavin 1 μmol/L, EDTA 5 mmol/L, CYPMPO 10 mmol/L", "value": "generated a small amount of EDTA radicals but not superoxide"}
    ]}
  ]
}
